Measured values: patent US4705799A, “Aminomethyl oxooxazolidinyl benzenes useful as antibacterial agents” (E. I. Du Pont de Nemours and Company, priority 1985, dated 1987)
In brackets after ≈: the same amount, converted by molar mass.

What was measured:
[1] = system: Staphylococcus epidermidis; experiment: In vitro broth dilution minimal inhibitory concentration (standard microdilution method); type: cell-based; details: 24 h, Mueller-Hinton broth, 24-hour, read-out: Microdilution Broth MIC
Escherichia coli [2] = experiment: In vivo efficacy of compounds administered subcutaneously in mouse intraperitoneal infections; details: sc, 168 h; mouse i.p. Escherichia coli infection; subcutaneous; dosed at infection and 4 h post-infection; 7 days; read-out: ED50 (50 percent effective dose)
Staphylococcus aureus [3] = experiment: as above; details: sc, 168 h; mouse i.p. Staphylococcus aureus infection; subcutaneous; dosed at infection and 4 h post-infection; 7 days; read-out: ED50 (50 percent effective dose)
Escherichia coli [4] = experiment: In vitro broth dilution minimal inhibitory concentration (standard microdilution method); type: cell-based; details: Escherichia coli; Mueller-Hinton broth; 24-hour; read-out: Microdilution Broth MIC
Escherichia coli [5] = experiment: In vivo efficacy of orally administered compounds in mouse intraperitoneal infections; details: 168 h; mouse i.p. Escherichia coli infection; oral; dosed at infection and 4 h post-infection; 7 days; read-out: ED50 (50 percent effective dose)
Staphylococcus aureus [6] = experiment: as above; details: Staphylococcus aureus, po, 168 h, mouse i.p. Staphylococcus aureus infection; oral; dosed at infection and 4 h post-infection; 7 days; read-out: ED50 (50 percent effective dose)

| Structure (SMILES) | MIC [1] [µg/mL] | MIC (Escherichia coli [4]) [µg/mL] | ED50 (Escherichia coli [2]) [mg/kg] | ED50 (Staphylococcus aureus [3]) [mg/kg] | ED50 (Escherichia coli [5]) [mg/kg] | ED50 (Staphylococcus aureus [6]) [mg/kg] |
| --- | --- | --- | --- | --- | --- | --- |
| CC(=O)N(CC1CN(c2ccc(S(C)(=O)=O)cc2)C(=O)O1)C1CCCCC1 (racemic) [Example 124, (dl)-N-cyclohexyl-N-[3-[4-(methylsulfonyl)phenyl]-2-oxooxazolidin-5-ylmethyl]acetamide] | > 200 | > 200 | > 120 | 16.3 | > 120 | 48.4 |
| CC(=O)NCC1CN(c2ccc(C(C)O)cc2)C(=O)O1 (single isomer, unassigned) [Example 130, (l)-N-[3-[4-(1-Hydroxyethyl)phenyl]-2-oxo-5-oxazolidinylmethyl]acetamide] | 3.1 (≈ 11.1 µM) | 50 (≈ 180 µM) | 26.3 | < 1.3 | 17.4 | 2.1 |
| CC(=O)NCC1CN(c2ccc(C(C)=NNC(C)=O)cc2)C(=O)O1 (single isomer, unassigned) [Example 132, (l)-N-[3-[4-[1-(Acetylhydrazono)ethyl]phenyl]-2-oxo-5-oxazolidinylmethyl]acetamide] | 6.2 (≈ 18.7 µM) | > 200 | > 120 | 6.9 | 24.7 | < 4.4 |
| CCc1ccc(N2CC(CNC(C)=O)OC2=O)cc1 (single isomer, unassigned) [Example 133, (l)-N-[3-(4-Ethylphenyl)-2-oxo-5-oxazolidinylmethyl]acetamide] | 1.6 (≈ 6.1 µM) | > 200 | 15.2 | 2.2 | 17.9 | 3 |
| CC(=O)NCC1CN(c2ccc(S)cc2)C(=O)O1 (single isomer, unassigned) [Example 153, (l)-N-[3-(4-Mercaptophenyl)-2-oxooxazolidin-5-ylmethyl]acetamide] | > 50 | > 50 | 57.2 | < 13 | 17 | 5.7 |
| CSCC(=O)c1ccc(N2CC(CNC(C)=O)OC2=O)cc1 (single isomer, unassigned) [Example 161, (l)-N-[3-[4-(Methylthioacetyl)phenyl]-2-oxo-5-oxazolidinylmethyl]acetamide] | 1.6 (≈ 4.96 µM) | > 200 | > 120 | 5.4 | > 120 | 10.4 |
| CC(=O)NCC1CN(c2ccc(C(C)=NNC(C)=O)cc2)C(=O)O1 (stereo not shown) [Example 36] | 25 (≈ 75.2 µM) | > 200 | > 120 | 7.4 | 47.2 | 4.7 |
| CC(=O)NCC1CN(c2ccc(C(C)C)cc2)C(=O)O1 (stereo not shown) [Example 38] | 9.4 (≈ 34 µM) | > 200 | 60.4 | 4.8 | > 120 | 9.1 |
| CCCCc1ccc(N2CC(CNC(C)=O)OC2=O)cc1 (stereo not shown) [Example 81] | 6.2 (≈ 21.4 µM) | > 200 | > 120 | 27.9 | > 120 | 47.9 |
| CCc1ccc(N2CC(CNC(C)=O)OC2=O)cc1 (stereo not shown) [Example 82] | 3.1 (≈ 11.8 µM) | > 200 | 95.1 | 2 | 65.9 | 2.7 |
| CC(=O)NCC1CN(c2ccc(Br)cc2)C(=O)O1 (stereo not shown) [Example 86] | 6.25 (≈ 20 µM) | > 200 | > 40 | 4.7 | > 40 | 6.9 |
| CCCc1ccc(N2CC(CNC(C)=O)OC2=O)cc1 (stereo not shown) [Example 136] | 6.25 (≈ 22.6 µM) | > 200 | 100 | < 4.4 | 100 |  |
| CC(=O)c1ccc(N2CC(CNC(=O)CN=[N+]=[N-])OC2=O)cc1 (stereo not shown) [Example 175] | 4 (≈ 12.6 µM) | 128 (≈ 403 µM) | 73.5 | 8.2 |  | 6.6 |
| CC(=O)c1ccc(N2CC(CNC(N)=O)OC2=O)cc1 (stereo not shown) [Example 177] | 4 (≈ 14.4 µM) | > 128 | 34 | 2.8 |  | 3.7 |

Now from value to molecule, other results behind:

| MIC [1] [µg/mL] | MIC (Escherichia coli [4]) [µg/mL] | Structure (SMILES) | ED50 (Escherichia coli [2]) [mg/kg] | ED50 (Staphylococcus aureus [3]) [mg/kg] | ED50 (Escherichia coli [5]) [mg/kg] | ED50 (Staphylococcus aureus [6]) [mg/kg] |
| --- | --- | --- | --- | --- | --- | --- |
| > 200 | > 200 | CCCCCCN(CC1CN(c2ccc(S(C)(=O)=O)cc2)C(=O)O1)C(C)=O (racemic) [Example 122, (dl)-N-Hexyl-N-[3-[4-(methylsulfonyl)phenyl]-2-oxooxazolidin-5-ylmethyl]acetamide] | > 120 | 16.3 | > 120 | 48.4 |
| 2.4 (≈ 6.3 µM) | 9.4 (≈ 24.7 µM) | CS(=O)(=O)c1ccc(N2CC(CNC(=O)C(Cl)Cl)OC2=O)cc1 (single isomer, unassigned) [Example 22, (l)-2,2-Dichloro-N-[3-[4-(methylsulfonyl)phenyl]-2-oxooxazolidin-5-ylmethyl]acetamide] | 11.8 |  | 71.1 | 14.2 |
| 6.3 (≈ 19.2 µM) | 100 (≈ 305 µM) | COC(=O)NCC1CN(c2ccc(S(C)(=O)=O)cc2)C(=O)O1 (single isomer, unassigned) [Example 26, (l)-N-[3-[4-(Methylsulfonyl)phenyl]-2-oxooxazolidin-5-ylmethyl]carbamic acid, methyl ester] | 40.7 |  | 56.2 | 1.7 |
| 12.5 (≈ 32.7 µM) | 50 (≈ 131 µM) | NS(=O)(=O)c1ccc(N2CC(CNC(=O)C(Cl)Cl)OC2=O)cc1 (single isomer, unassigned) [Example 112, (l)-2,2-Dichloro-N-[3-[4-(aminosulfonyl)phenyl]-2-oxooxazolidin-5-ylmethyl]acetamide] | 62.7 | 14.4 | > 360 | > 360 |
| 25 (≈ 79.8 µM) | 100 (≈ 319 µM) | CC(=O)NCC1CN(c2ccc(S(N)(=O)=O)cc2)C(=O)O1 (single isomer, unassigned) [Example 113, (l)-N-[3-[4-(Aminosulfonyl)phenyl]-2-oxooxazolidin-5-ylmethyl]acetamide] | 11.7 | 9.6 | 29.7 | 17.2 |
| 200 (≈ 589 µM) | 200 (≈ 589 µM) | CC(=O)NCC1CN(c2ccc(S(=O)(=O)N=[N+]=[N-])cc2)C(=O)O1 (single isomer, unassigned) [Example 114, (l)-N-[3-(4-Azidosulfonylphenyl)-2-oxooxazolidin-5-ylmethyl]acetamide] | 12.5 |  | 10.5 | 15.3 |
| 10 (≈ 33.7 µM) | > 200 | CC(=O)NCC1CN(c2ccc([S+](C)[O-])cc2)C(=O)O1 (single isomer, unassigned) [Example 120, (l)-N-[3-[4-(Methylsulfinyl)phenyl]-2-oxooxazolidin-5-ylmethyl]acetamide] | 6.1 | 2.8 | 11.1 | 3.3 |
| 0.4 (≈ 1.45 µM) | 12.5 (≈ 45.2 µM) | CC(=O)NCC1CN(c2ccc(C(C)=O)cc2)C(=O)O1 (single isomer, unassigned) [Example 129, (l)-N-[3-(4-Acetylphenyl)-2-oxo-5-oxazolidinylmethyl)acetamide] | 14 | 0.5 | 13.6 | 0.7 |
| 2.4 (≈ 8.59 µM) | 200 (≈ 716 µM) | CC(=O)NCC1CN(c2ccc([N+](=O)[O-])cc2)C(=O)O1 (single isomer, unassigned) [Example 146, (l)-N-[3-(4-Nitrophenyl)-2-oxooxazolidin-5-ylmethyl]acetamide] | 40 | > 13 | 29.8 | 2 |
| 12.5 (≈ 42.8 µM) | > 200 | COC(=O)NCC1CN(c2ccc(C(C)C)cc2)C(=O)O1 (stereo not shown) [Example 39] | > 120 | 5.5 | > 120 | 6.1 |
| 12.5 (≈ 38.2 µM) | > 200 | CNS(=O)(=O)c1ccc(N2CC(CNC(C)=O)OC2=O)cc1 (stereo not shown) [Example 46] | 91 | > 13 | 62.5 | 15.8 |
| 12.5 (≈ 36.5 µM) | 100 (≈ 292 µM) | COCC(=O)NCC1CN(c2ccc(S(C)(=O)=O)cc2)C(=O)O1 (stereo not shown) [Example 57] | 12.9 |  | 39 | 10.8 |
| 3.2 (≈ 9.23 µM) | 2.5 (≈ 7.21 µM) | CS(=O)(=O)c1ccc(N2CC(CNC(=O)CCl)OC2=O)cc1 (stereo not shown) [Example 67] | 99 | 18.6 | > 120 | 42.5 |
| 12.5 (≈ 44.9 µM) | > 200 | CCc1ccc(N2CC(CNC(=O)OC)OC2=O)cc1 (stereo not shown) [Example 83] | > 12 | 6.6 | > 120 | 9.6 |
| 100 (≈ 372 µM) | > 200 | CC(=O)NCC1CN(c2ccc(Cl)cc2)C(=O)O1 (stereo not shown) [Example 87] | > 120 | 10.5 | > 120 | 42 |
| > 200 | > 200 | CC(=O)NCC1CN(c2ccc(F)cc2)C(=O)O1 (stereo not shown) [Example 88] | > 120 | 21.9 | > 120 | 23.6 |
| 18.8 (≈ 52.1 µM) | 200 (≈ 554 µM) | CS(=O)(=O)c1ccc(N2CC(CNC(=O)CCCl)OC2=O)cc1 (stereo not shown) [Example 94] | 46.7 | 18.7 | 76.8 | 30.2 |
| 4 (≈ 13.7 µM) | 128 (≈ 438 µM) | COC(=O)NCC1CN(c2ccc(C(C)=O)cc2)C(=O)O1 (stereo not shown) [Example 179] | 83.1 | 1.7 |  | 2 |
